The values below come from patent US7098372B1, “Pharmaceutical compositions and methods of using secreted frizzled related protein” (Wyeth, priority 1999, dated 2006).

Holding throughout (format): cell-based, human
Assay [1] deals with hOB-03-C5 cells. Put plainly: Apoptosis by flow cytometry using annexin V-FITC and propidium iodide. The procedure: Apoptosis was measured by flow cytometry using annexin V-FITC.
(§1) The hypothesis that up-regulation of SFRP-1/FRP-1/SARP-2 gene expression accelerates hOB cell death, while down-regulation of SFRP-1/FRP-1/SARP-2 gene expression suppresses cell death, was next examined. […] The next day, the 6-well plates were rinsed with PBS, placed in BSA-medium, and treated at 39° C. in the absence or presence of either 100 nM PGE2 (in order to up-regulate SFRP-1/FRP-1/SARP-2 steady-state mRNA levels; panels A & B), or 0.01–1.0 nM TGF-β1 (in order to down-regulate SFRP-1/FRP-1/SARP-2 message levels; panel C). Incubating cells in serum-free medium is a common method to induce apoptosis (Melkonyan et al. 1997 Proc. Natl. Acad. Sci. USA 94: 13636–13641), and the hOB-03-C5, hOB-03-CE6 and hOB-01-C1 cell lines all stopped dividing and gradually died under these conditions. […] In contrast, treatment of the hOB-01-C1 cells with TGF-β1 increased cell viability about 2-fold in a dose-dependent manner. […] This observation was consistent with the induction of apoptosis, which is known to result in cytoplasmic blebbing, the loss of water and a decrease in cell volume (Mesner and Kaufmann 1997 in Advances in Pharmacology, vol. 41, pp. 57–88). […] Finally, treatment of the hOB-03-C5 cells with PGE2 increased annexin V (a specific marker for apoptosis) binding to the cell as measured by flow cytometry (FIG. 11).

The test system of assay [2] is hOB-03-C5 cells. Nature of the assay: Generation of histone-associated DNA fragments. The procedure:
as §1

The subject of assay [3] is β-catenin. Nature of the assay: Western blot analysis for β-catenin. The note with it: hOB-03-CE6 cells, 100 nM, 24 hr. The procedure:
FIG. 15 is an autoradiogram of a Western blot of whole cell extracts isolated from hOB-03-CE6 cells treated with either control or PGE2 for 24 hr. The immunoblot was probed with a monoclonal antibody to β-catenin, which has a molecular weight of 92,000.
In order to determine if the up-regulation of SFRP-1/FRP-1/SARP-2 gene expression results in an antagonism of the Wnt signaling pathway, hOB-03-CE6 cells were treated with PGE2 and the resulting cells probed with β-catenin monoclonal antibody. Overexpression of Wnt proteins in cells up-regulates a signaling protein known as β-catenin (reviewed in Moon et al. 1997 Cell 88: 725–728; Barth et al. 1997 Curr. Opin. Cell Biol. 9: 683–690; and Nusse 1997 Cell 89: 321–323). […] Therefore, hOB-03-CE6 cells were plated and treated with PGE2 as described in Example 1, except that total cellular protein was extracted and a Western blot analysis for β-catenin was performed using a monoclonal antibody to the protein (Transduction Laboratories) as previously described (Bodine et al. 1996 Endocrinology 137: 4592–4604; Melkonyan et al. 1997 Proc. Natl. Acad. Sci. USA 94: 13636–13641). […] Both human and rat SFRP-1/FRP-1/SARP-2, as well as human Frzb-1/FrzB/Fritz, suppressed TCF-luciferase activity in the hOB cells.

Assay [4] relates to hOB-01-C1-PS-09 cells. Nature of the assay: Hepatocyte growth factor (HGF) secretion by hOB-01-C1-PS-09 cells. The conditions noted are these: 39° C.

Consider `CCCCC[C@H](O)/C=C/[C@H]1[C@H](O)CC(=O)[C@@H]1C/C=C\CCCC(=O)O` [PGE2, prostaglandin E2], for which the “annexin V binding to the cell” value in assay [1] is “increased”. Moreover, in assay [1] (increasing concentrations), the “number of apoptotic cells (annexin V but not propidium iodide)” value was “increases”; the “number of necrotic cells (annexin V and propidium iodide)” value is recorded as “increases”; the “number of viable cells (no annexin V or propidium iodide staining)” value is on record as “declines”. In assay [2], the “histone-associated DNA fragments” value was “resulted in the generation of histone-associated DNA fragments”. Besides, in assay [3], the β-catenin protein levels result is “down-regulated”.

In the case of “human transforming growth factor-β1 [TGF-β1]”, the HGF secretion result in assay [4] is “dose-dependent decrease”.
